Assays:
Type in all cases: cell-based, Aspergillus niger
[1] = tested on: germinated spores of A. niger; test: Effect of CFW addition on growth of germlings
Procedure: FIG. 3: Effect of CFW addition on growth of germlings. Germinated spores of A. niger were treated with increasing concentrations of CFW. Both the extend of hyphal tip swelling and the time required to resume growth is dependent on the concentration of CFW.
(§1) To identify genes that are induced upon cell wall stress, we have first investigated which cell wall perturbing compound was suited for this purpose. Finally, we used the antifungal compound Calcofluor White (CFW) to induce cell wall stress. […] Because of the defects in cell wall assembly, the cell wall is weakened en swells from internal pressure. Polarized growth is resumed after 2-4 hours. Both the effect of hyphal tip swelling and the time that is required to resume growth are dependent on the concentration of CFW (FIG. 3). To identify genes that are induced upon CFW treatment, mRNA has been isolated from germling that have been treated with or without CFW for various time intervals. […] These germlings were than treated with 200 μg/ml CFW. After 1, 2 and 4 hours after addition of CFW total RNA was isolated and used in Northern blot experiments (see FIG. 4). As a control, total RNA was isolated from germlings that were not treated with CFW. Several probes encoding putative proteins involved in cell wall biosynthesis have been analysed and quantified.

fksA = test: Northern blot analysis of fksA expression in CFW stressed germlings; conditions: in the presence of CFW (200 μg/ml)
Procedure: as §1
(§2) The highest induction was found for agsA. Thus, these genes are regulated by the promoter sequences as a response to the induced cell wall stress. Such promoters are suitable candidates for use as reporters. […] No signal could be detected for the other ags homologs.

agsA promoter = test: PagsA-AmdS reporter strain growth on acetamide plates; conditions: 0.5 mg/ml CFW added to the plates
Source text: Aspergillus niger grows poorly on acetamide as a nitrogen source. When additional copies of the amdS gene, encoding a acetamidase of A. nidulans are introduced, A. niger can grown on acetamide plates and the amdS gene can therefore be used as a selectable marker (Kelly and Hynes, 1985). The coding region of the amdS gene was fused to the agsA promoter sequence. Both the relatively low basal expression of the agsA gene and the high level of induction after CFW stress (over 20-fold) makes the agsA promoter a good candidate for use as a reporter. The reporter construct further comprises the amdS gene (A. nidulans) with its own terminator. For targeting to the pyrG locus of the A. niger strain AB4.1 (pyrG^−) the pyrG* gene is included in the construct (cf. Van Gorcum et al., 1988). […]
The construct was transformed to strain AB4.1 (a pyrG negative strain derived from N402) and transformants were selected on the presence of an intact pyrG gene. Wild type strain N402 and purified transformants (ABRD1.1-1.25 and ABRD2.1-2.15) were analysed were grown on acetamide and acrylamide plates. […] The majority of the transformants were analysed by Southern blotting to confirm correct integration of the construct.

gfaA = test: Northern blot analysis of gfaA expression in CFW stressed germlings; conditions: germlings treated with 200 μg/ml CFW; RNA 1, 2 and 4 hours after addition; vs untreated germlings
Procedure: as §1, §2

O=S(=O)(O)c1cc(Nc2nc(Nc3ccccc3)nc(N(CCO)CCO)n2)ccc1/C=C/c1ccc(Nc2nc(Nc3ccccc3)nc(N(CCO)CCO)n2)cc1S(=O)(=O)O [CFW, Calcofluor White]
time until polarized growth is resumed ([1]; after CFW treatment, dependent on CFW concentration): 2 to 4 h | hyphal morphology of germinating spores ([1]; treatment of germinating spores with CFW, concentration dependent): formation of swollen hyphe | expression level of fksA (fksA): not significantly altered | growth of PagsA-AmdS transformants on acetamide plates (agsA promoter): resulted in growth (and sporulation) for the majority of the transformants | increase in gfaA mRNA level (gfaA): 4 fold

— patent US20060088902A1, “Methods and materials for the identification of antifungal substrates in filamentous fungi” (priority 2001, published 2006)
